Measurements taken from US20120149645A1, “COMPOSITIONS AND MODULATION OF MYOCYTE ENHANCER FACTOR 2 (MEF2)” (EMORY UNIVERSITY, priority 2010, published 2012).

B1: MEF2D1-131: dominant-negative form of MEF2D which interferes with nuclear MEF2 function (protein, UniProt Q63943 1-131, looked up, fragment)
chain: MGRKKIQIQRITDERNRQVTFTKRKFGLMKKAYELSVLCDCEIALIIFNHSNKLFQYASTDMDKVLLKYTEYNEPHESRTNADIIETLRKKGFNGCDSPEPDGEDSLEQSPLLEDKYRRASEELDGLFRRY
B2: Mt2D: Mitochondria-targeting active MEF2D: mouse MEF2D 1-493aa with added mitochondria-targeting signal, lacking nuclear localization signals (protein, UniProt Q63943 1-493, looked up, fragment)
chain: MGRKKIQIQRITDERNRQVTFTKRKFGLMKKAYELSVLCDCEIALIIFNHSNKLFQYASTDMDKVLLKYTEYNEPHESRTNADIIETLRKKGFNGCDSPEPDGEDSLEQSPLLEDKYRRASEELDGLFRRYGSSVPAPNFAMPVTVPVSNQSSMQFSNPSSSLVTPSLVTSSLTDPRLLSPQQPALQRNSVSPGLPQRPASAGAMLGGDLNSANGACPSPVGNGYVSARASPGLLPVANGNSLNKVIPAKSPPPPTHNTQLGAPSRKPDLRVITSQGGKGLMHHLTEDHLDLNNAQRLGVSQSTHSLTTPVVSVATPSLLSQGLPFSSMPTAYNTDYQLPSAELSSLPAFSSPAGLALGNVTAWQQPQPPQQPQPPQPPQSQPQPPQPQPQQPPQQQPHLVPVSLSNLIPGSPLPHVGAALTVTTHPHISIKSEPVSPSRERSPAPPPPAVFPAARPEPGEGLSSPAGGSYETGDRDDGRGDFGPTLGLLRPA
modifications: mitochondria-targeting signal added

Key:
MEF2D binding to ND6 = assay: ChIP assay of MEF2D binding to the ND6 MEF2 site in purified mitochondria; format: cell-based, mouse; details: for binding of mitochondrial MEF2D to the ND6 MEF2 site: SN4741 cells, MPP+ 25 μM or rotenone 100 nM for 12 hours
Source text: (§1) (A) Mitochondria-targeting MEF2D (Mt2D) and mitochondria-targeting dominant-negative MEF2D (Mt2Ddn), which lacks the transactivation domain (TAD). […] Control indicates the control vector group. (C) Effects of Mt2D or Mt2Ddn on ND6 expression in SN4741 cells. Over-expression of Mt2Ddn in SN4741 cells reduced ND6 but not PPAR-γ coactivator 1 (PGC1) expression by western blotting (n=4, **p<0.01). Control indicates the control vector group. (D) Effects of over-expression of Mt2D or Mt2Ddn on mRNA levels of mitochondria encoded genes. […] Control indicates the control vector group. (E) Effects of Mt2D or Mt2Ddn on mtDNA L-strand transcription initiation in vitro (n=3; **P<0.01). A human mtDNA fragment containing mitochondrial L-strand promoter (LSP) and ND6 gene was used in the in vitro transcription assay. […] (F) Effects of Mt2D or Mt2Ddn on mtDNA de novo transcription in vivo (n=3; **P<0.01). Control (−) is without primers. Control (+) indicates the control vector group.
(§2) (A) Reduced binding of MEF2D to ND6 after neurotoxin treatment. SN4741 cells were treated with MPP+ (25 μM) or rotenone (Rot, 100 nM) for 12 hours. […] Control indicates untreated. […] Control indicates untreated. (C) Immunocytochemical analysis of mitochondrial MEF2D after MPP+ and rotenone treatment. SN4741 cells treated as described in (A) were stained (scale bar, 10 μm). […] Experiments were repeated four times. Control indicates untreated. […] SN4741 cells were treated with MPP+ after infection with the control, Mt2Ddn or Mt2DVP16 or MtND6 lentiviruses for 24 hours (upper graph: different doses of MPP+ for 24 hours; lower graph: 5 μM of MPP+ for different times). Cell viability was measured by WST-1 assay (n=4; *p<0.05; **P<0.01). Control indicates the control vector group.
Andres et al., J Biol Chem, 1995, 270:23246-23249. Moreover, this putative MEF2 binding site is conserved among several species. To test whether MEF2D binds to this putative MEF2 site, electronic mobility shift assay (EMSA) was performed. N-terminal MEF2D formed a complex with the labeled probe containing the ND6 MEF2 site. […] To corroborate this finding, a chromatin immunoprecipitation (ChIP) assay was carried out using highly purified mitochondria. […] ND6 but not ND2 based primers could amplify the bound sequence (FIG. 3C). Sequence analysis of the DNA bound by MEF2D after amplification confirmed the presence of the ND6 MEF2 site (FIG. 3D).

ND6 mRNA = assay: Real-time PCR of mitochondria-encoded mRNA levels in SN4741 cells; format: cell-based, mouse; details: SN4741 cells; relatively short exposure to toxicant
Source text: as §1

MEF2D and ND6 proteins = assay: Western blotting of MEF2D, ND6 and PGC1 protein levels in SN4741 cells; format: cell-based, mouse; details: for level of ND6 protein / level of mitochondrial MEF2D protein / level of MEF2D in the nucleus / level of MEF2D in whole cell: SN4741 cells; for level of ND6 protein / level of mitochondrial MEF2D protein: purified mitochondria, MPP+ 25 μM or rotenone 100 nM for 12 hours; for level of MEF2D in the nucleus / level of MEF2D in whole cell: same toxicant condition
Source text: as §1, §2
(§3) (A) Diagrams of Mt2DVP16 and MtND6. Mt2DVP16 was constructed by fusion of transactivation domain (TAD) of VP16 with DNA-binding domain of MEF2D and a mitochondria-targeting sequence (Mito). […] (C) Over-expression of Mt2DVP16 attenuated MEF2D siRNA-induced reduction of ND6 expression (n=3, **P<0.01).

SN4741 cells [1] = assay: Immunocytochemistry, colocalization of MEF2D with MitoTracker; format: cell-based, mouse; details: SN4741 cells and primary midbrain dopamine neurons; toxicant treatment
Protocol: as §2
SN4741 cells or primary midbrain DA neurons were plated on glass slides in 24-well plates. Localizations of endogenous and exogenous MEF2D were visualized on a Zeiss LSM5 PASCAL confocal microscope. To visualize colocalization of MEF2D with the mitochondria, cells were stained with MitoTracker (Invitrogen) and anti-MEF2D (BD Bioscience) or anti-FLAG (Sigma) antibodies. Quantification of colocalization of signals was done using “Colocalization Analysis” program of software Image Pro (Media Cybernetics). Overlap coefficients of 50 cells in each group were collected. […]

SN4741 cells [2] = assay: WST-1 cell viability assay; format: cell-based, mouse; details: SN4741 cells; different doses of MPP+ for 24 hours
Protocol: as §2
WST-1 assay was done using a kit (cat. no. 11644807001) from Roche and following procedures provided by the manufacturer. WST-1 (4-[3-(4-Iodophenyl)-2-(4-nitrophenyl)-2H-5-tetrazolio]-1,3-benzene disulfonate) is a water-soluble tetrazolium salt whose cleavage by cellular enzymes correlates with cell viability. Cells were seeded in 96-well plates and treated as indicated. Than 10 μl/well of premixed WST-1 Cell Proliferation Reagent was added, and the cells were incubated for an additional 4 hr under the same conditions. Absorbance at 450 nm was measured on a multi-well plate reader (Bio-Tek).

nuclear MEF2 = assay: MEF2 luciferase reporter assay; format: cell-based; details: co-transfected with MEF2 luciferase reporter
Source text: (§4) Control indicates the group co-tranfected with control vector.
MEF2 luciferase reporter assay was done as described Wang et al., J Biol Chem, 2005, 280:16705-16713. Briefly, cells were transiently transfected with various constructs with MEF2 luciferase reporter plasmid (WT, reporter with wild type MEF2 DNA binding sites; mt, reporter with the MEF2 DNA binding sites mutated) using Lipofectimane 2000 (Invitrogen) following procedures provided by the manufacturer. A β-galactosidase expression plasmid was used to determine the efficiency in each transfection. The total amount of DNA for each transfection was kept constant by using control vectors. Cell lysates were analyzed for luciferase and β-galactosidase activity according to the manufacturer's instructions (Roche, cat. no. 11669893001).

mitochondrial complex I = assay: Mitochondrial complex protein level and activity (BN-PAGE, in-gel staining, quantitative assays); format: cell-based, mouse; details: over-expression in SN4741 cells
Source text: (§5) (A) Requirement of mitochondrial MEF2D for complex I activity. […] Control indicates the control vector group. (B) Over-expression of ND6 rescued complex I activity reduced by Mt2Ddn. Control indicates the control vector group. (C) Measurement of various complex activities. […] Control indicates the control vector group. (D) Effects of over-expression of Mt2D or Mt2Ddn on mitochondrial function. Mt2Ddn reduced cellular ATP level and elevated H2O2 production in SN4741 cells (n=4; *p<0.05; **P<0.01). Control indicates the control vector group.
(§6) Mitochondrial complex I activity was evaluated initially by blue native-polyacrylamide gel electrophoresis (BN-PAGE) and in-gel activity staining. This assay measures total complex I activity. Rotenone sensitive complex I activity and activities of other mitochondrial complexes were further measured by methods described by Antoni et al., J Biol Chem, 1998, 273:14210-14217. Briefly, parallel assays were performed to measure complex I activity at 340 nm using 2,3-dimethoxy-5-methyl-6-n-decyl-1,4-benzoquinone (DB) (50 μM) as acceptor and NADH (0.8 mM) as donor, in 50 mM Tris (pH 8.0) buffer supplemented with 5 mg/ml BSA either without or with the addition of 4 μM rotenone, which gave total and rotenone insensitive complex I activities, respectively. The difference in value between the two provided a quantified measure of the rotenone-sensitive activity. Mitochondrial membrane potential was detected using a kit (cat. no. 280002) from Stratagene following the procedures provided by the manufacturer. The fluorescent dye JC-1 (5,5′,6,6′-tetrachloro-1,1′,3,3′-tetraethylbenzimidazolyl carbocyanine iodide) stains mitochondria red in a membrane potential dependent manner. Briefly, cells were seeded in 96-well plates at 4×10^4 cells/well with 100 μl culture medium and incubated at 33° C. with 5% CO2. After treatment, 10 μl/well of premixed JC-1 staining solution was added, and the cells were incubated for an additional 30 min under the same conditions. After thorough washes, 100 μl assay buffer was added to each well. Fluorescence signal was detected with excitation and emission at 520 nm and 590 nm, respectively, on a multi-well plate reader (Bio-Tek). Cellular ATP and H202 were measured by Bioluminescent Somatic Cell ATP Assay Kit (Sigma) and Hydrogen Peroxide Assay Kit (Cayman), respectively.

SN4741 cells [3] = assay: Mitochondrial functional assays (ATP, H2O2, membrane potential); format: cell-based, mouse; details: over-expression in SN4741 cells
Source text: as §5, §6

[4] = system: human mtDNA fragment containing mitochondrial L-strand promoter (LSP) and ND6 gene; assay: In vitro mtDNA L-strand transcription assay; format: biochemical
Source text: as §1

SN4741 cells [5] = assay: Subcellular localization of over-expressed MEF2D constructs; format: cell-based, mouse; details: over-expressed in SN4741 cells
Source text: (A) Lack of mitochondrial localization by ΔN30MEF2D. […] VDAC, PARP and c-Raf are Mt, Nu and Cy markers, respectively. Control indicates the control vector group. (B) Immunocytochemistry analysis of mitochondrial localization of transfected Flag-MEF2D. […] Experiments were repeated four times. (C, D) Requirement of mtHsp70 for mitochondria-targeting of MEF2D (n=4; **p<0.01). Control indicates untreated. […]. Knocking down mouse mtHsp70 by siRNA reduced MEF2D level in purified mitochondria from SN4741 cells (C). […] MnSOD is a known mtHsp70-imported mitochondrial matrix protein.
as §3, §4
SN4741 cells or primary midbrain DA neurons were plated on glass slides in 24-well plates. Localizations of endogenous and exogenous MEF2D were visualized on a Zeiss LSM5 PASCAL confocal microscope. […] Quantification of colocalization of signals was done using “Colocalization Analysis” program of software Image Pro (Media Cybernetics). […]

[6] = construct over-expressed in SN4741 cells

| Molecule | binding of mitochondrial MEF2D to the ND6 MEF2 site (MEF2D binding to ND6) | mRNA level of ND6 (ND6 mRNA) | level of ND6 protein (MEF2D and ND6 proteins) | level of mitochondrial MEF2D protein (MEF2D and ND6 proteins) | level of MEF2D in the nucleus (MEF2D and ND6 proteins) | level of MEF2D in whole cell (MEF2D and ND6 proteins) | colocalization of MEF2D and MitoTracker signals (SN4741 cells [1]) | neuronal viability (SN4741 cells [2]) | nuclear MEF2 activity (MEF2 reporter) (nuclear MEF2) | binding of full length MEF2D to the ND6 MEF2 site (MEF2D binding to ND6; [6]) | ND6 protein level / expression (MEF2D and ND6 proteins; [6]) | mitochondrial complex I activity (mitochondrial complex I) | cellular ATP level (SN4741 cells [3]) | hydrogen peroxide production by mitochondria (SN4741 cells [3]) | mitochondrial membrane potential (SN4741 cells [3]; JC-1) | level of L-strand promoter (LSP) transcripts [4] | mitochondrial localization by immunocytochemical staining (MitoTracker) (SN4741 cells [5]) |
| --- | --- | --- | --- | --- | --- | --- | --- | --- | --- | --- | --- | --- | --- | --- | --- | --- | --- |
| C[n+]1ccc(-c2ccccc2)cc1 [MPP+, 1-methyl-4-phenylpyridinium] | greatly reduced | greatly reduced | decrease | decrease | not affected | not affected | preferentially reduced | loss of neuronal viability in a dose dependent manner |  |  |  |  |  |  |  |  |  |
| C=C(C)[C@H]1Cc2c(ccc3c2O[C@@H]2COc4cc(OC)c(OC)cc4[C@@H]2C3=O)O1 [rotenone] | greatly reduced | greatly reduced | decrease | decrease | not affected | not affected | preferentially reduced |  |  |  |  |  |  |  |  |  |  |
| B1 |  |  |  |  |  |  |  |  | interferes with nuclear MEF2 function |  |  |  |  |  |  |  |  |
| B2 |  |  |  |  |  |  |  |  | did not affect | modulated | did not significantly change | neither increased the protein level nor the activity | did not alter | did not alter | did not alter | increases | targeted exclusively to mitochondria |
